# Assay results taken from ChEMBL document CHEMBL5236653, “Dual functional antioxidant and butyrylcholinesterase inhibitors for the treatment of Alzheimer's disease: Design, synthesis and evaluation of novel melatonin-alkylbenzylamine hybrids” (Bioorg Med Chem, 2023).
# What was measured:
# Acetylcholinesterase [1] = target: Acetylcholinesterase (Electrophorus electricus, UniProt O42275); experiment: Inhibition of electric eel AChE using ATCI and BTCI as substrate preincubated for 5 mins followed by substrate addition and measured after 3 mins by DTNB-reagent based Ellman's method
# Chain of Acetylcholinesterase (Electrophorus electricus, UniProt O42275) (O42275 whole entry): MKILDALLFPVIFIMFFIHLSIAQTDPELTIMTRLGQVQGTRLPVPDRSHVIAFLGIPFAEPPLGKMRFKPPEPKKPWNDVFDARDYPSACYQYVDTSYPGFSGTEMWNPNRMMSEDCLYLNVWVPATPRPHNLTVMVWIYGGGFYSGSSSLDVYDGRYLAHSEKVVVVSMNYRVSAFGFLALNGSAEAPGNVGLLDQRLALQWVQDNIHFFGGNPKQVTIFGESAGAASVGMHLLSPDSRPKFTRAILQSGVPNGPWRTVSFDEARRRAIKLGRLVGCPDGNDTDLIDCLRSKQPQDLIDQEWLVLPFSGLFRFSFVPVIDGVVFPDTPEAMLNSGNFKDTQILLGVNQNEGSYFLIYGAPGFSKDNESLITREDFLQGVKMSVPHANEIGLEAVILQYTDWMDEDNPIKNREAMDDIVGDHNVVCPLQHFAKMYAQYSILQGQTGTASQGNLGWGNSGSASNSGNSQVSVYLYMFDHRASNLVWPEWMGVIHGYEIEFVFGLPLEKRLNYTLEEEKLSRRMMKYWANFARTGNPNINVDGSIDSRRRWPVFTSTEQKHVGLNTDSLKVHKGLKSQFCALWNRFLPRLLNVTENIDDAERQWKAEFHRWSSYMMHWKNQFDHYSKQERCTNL
# Cholinesterase [2] = target: Cholinesterase (Equus caballus, UniProt P81908); experiment: Inhibition of equine serum BuChE using ATCI and BTCI as substrate preincubated for 5 mins followed by substrate addition and measured after 3 mins by DTNB-reagent based Ellman's method; format: cell-free
# Chain of Cholinesterase (Equus caballus, UniProt P81908) (P81908 whole entry): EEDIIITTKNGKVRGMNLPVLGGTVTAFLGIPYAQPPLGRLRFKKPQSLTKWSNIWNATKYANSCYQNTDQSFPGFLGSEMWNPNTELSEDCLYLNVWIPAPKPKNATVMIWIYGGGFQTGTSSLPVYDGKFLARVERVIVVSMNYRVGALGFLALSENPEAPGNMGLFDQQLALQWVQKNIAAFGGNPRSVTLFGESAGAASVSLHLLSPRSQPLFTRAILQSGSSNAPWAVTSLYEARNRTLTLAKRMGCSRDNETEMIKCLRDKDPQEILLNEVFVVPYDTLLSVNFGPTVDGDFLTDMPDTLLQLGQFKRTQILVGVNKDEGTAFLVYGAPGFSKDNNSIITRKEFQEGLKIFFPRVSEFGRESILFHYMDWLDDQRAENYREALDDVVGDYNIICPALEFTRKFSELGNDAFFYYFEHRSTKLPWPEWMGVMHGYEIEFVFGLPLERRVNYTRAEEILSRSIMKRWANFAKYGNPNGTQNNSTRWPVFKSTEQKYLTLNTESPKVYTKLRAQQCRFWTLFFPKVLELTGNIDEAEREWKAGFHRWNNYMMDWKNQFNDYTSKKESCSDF
# [3] = Antioxidant activity assessed as trolox equivalent of ORAC radical scavenging activity by ORAC assay; format: functional
# [4] = Selectivity index, ratio of IC50 for inhibition of human erythrocyte AChE to IC50 for inhibition of human serum BuChE
# Acetylcholinesterase [5] = target: T1, Acetylcholinesterase (Homo sapiens, UniProt P22303); experiment: Inhibition of human erythrocyte AChE using ATCI and BTCI as substrate preincubated for 5 mins followed by substrate addition and measured after 3 mins by DTNB-reagent based Ellman's method
# T1 sequence (P22303 whole entry): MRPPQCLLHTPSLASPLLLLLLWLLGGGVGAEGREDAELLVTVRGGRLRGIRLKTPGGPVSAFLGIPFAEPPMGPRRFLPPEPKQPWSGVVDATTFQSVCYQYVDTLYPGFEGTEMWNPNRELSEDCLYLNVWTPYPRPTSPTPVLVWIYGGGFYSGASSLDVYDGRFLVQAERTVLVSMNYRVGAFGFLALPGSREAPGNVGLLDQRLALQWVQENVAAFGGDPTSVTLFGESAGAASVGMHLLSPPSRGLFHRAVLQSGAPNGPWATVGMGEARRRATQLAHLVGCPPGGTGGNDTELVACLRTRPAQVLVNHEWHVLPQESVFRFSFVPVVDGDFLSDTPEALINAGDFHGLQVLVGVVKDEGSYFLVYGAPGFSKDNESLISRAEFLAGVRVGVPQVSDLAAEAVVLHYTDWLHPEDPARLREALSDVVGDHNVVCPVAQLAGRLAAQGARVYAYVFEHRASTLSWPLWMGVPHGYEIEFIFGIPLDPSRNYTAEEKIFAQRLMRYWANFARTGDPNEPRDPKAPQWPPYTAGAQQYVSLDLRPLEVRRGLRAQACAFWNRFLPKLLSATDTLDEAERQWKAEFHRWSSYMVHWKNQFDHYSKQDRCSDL
# Cholinesterase [6] = target: T2, Cholinesterase (Homo sapiens, UniProt P06276); experiment: Inhibition of human serum BuChE using ATCI and BTCI as substrate preincubated for 5 mins followed by substrate addition and measured after 3 mins by DTNB-reagent based Ellman's method; format: cell-free
# T2 sequence (P06276 whole entry): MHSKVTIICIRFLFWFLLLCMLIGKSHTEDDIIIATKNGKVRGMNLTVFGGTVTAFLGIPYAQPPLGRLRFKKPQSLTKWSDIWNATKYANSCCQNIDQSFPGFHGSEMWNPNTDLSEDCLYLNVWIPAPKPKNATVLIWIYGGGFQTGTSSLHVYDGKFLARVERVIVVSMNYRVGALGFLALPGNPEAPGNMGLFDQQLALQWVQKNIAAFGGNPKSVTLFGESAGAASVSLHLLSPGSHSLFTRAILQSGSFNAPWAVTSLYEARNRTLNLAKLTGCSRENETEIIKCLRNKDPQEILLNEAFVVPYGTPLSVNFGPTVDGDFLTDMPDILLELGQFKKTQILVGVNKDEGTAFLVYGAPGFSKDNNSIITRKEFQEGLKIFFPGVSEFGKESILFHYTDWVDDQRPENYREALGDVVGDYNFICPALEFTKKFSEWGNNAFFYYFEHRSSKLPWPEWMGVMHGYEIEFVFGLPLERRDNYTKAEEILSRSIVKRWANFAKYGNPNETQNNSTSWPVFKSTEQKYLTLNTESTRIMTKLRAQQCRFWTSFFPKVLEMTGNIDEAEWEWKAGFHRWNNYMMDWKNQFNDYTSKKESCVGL
# in vitro = conditions: PAMPA
# Description: Permeability coefficient of the compound across blood brain barrier incubated for 18 hrs by PAMPA assay
# [7] = Selectivity index, ratio of IC50 for inhibition of human erythrocyte AChE to inhibition of human serum BuChE
# [8] = Selectivity index, ratio of IC50 for inhibition of equine serum BuChE to inhibition of electric eel AChE
# [9] = target: Acetylcholinesterase (Electrophorus electricus) (UniProt O42275); experiment: Inhibition of electric eel AChE at 100 uM using ATCI and BTCI as substrate preincubated for 5 mins followed by substrate addition and measured after 3 mins by DTNB-reagent based Ellman's method relative to control; conditions: time 8.0 min
# Chain of Acetylcholinesterase (Electrophorus electricus) (O42275 24-633 limits assumed): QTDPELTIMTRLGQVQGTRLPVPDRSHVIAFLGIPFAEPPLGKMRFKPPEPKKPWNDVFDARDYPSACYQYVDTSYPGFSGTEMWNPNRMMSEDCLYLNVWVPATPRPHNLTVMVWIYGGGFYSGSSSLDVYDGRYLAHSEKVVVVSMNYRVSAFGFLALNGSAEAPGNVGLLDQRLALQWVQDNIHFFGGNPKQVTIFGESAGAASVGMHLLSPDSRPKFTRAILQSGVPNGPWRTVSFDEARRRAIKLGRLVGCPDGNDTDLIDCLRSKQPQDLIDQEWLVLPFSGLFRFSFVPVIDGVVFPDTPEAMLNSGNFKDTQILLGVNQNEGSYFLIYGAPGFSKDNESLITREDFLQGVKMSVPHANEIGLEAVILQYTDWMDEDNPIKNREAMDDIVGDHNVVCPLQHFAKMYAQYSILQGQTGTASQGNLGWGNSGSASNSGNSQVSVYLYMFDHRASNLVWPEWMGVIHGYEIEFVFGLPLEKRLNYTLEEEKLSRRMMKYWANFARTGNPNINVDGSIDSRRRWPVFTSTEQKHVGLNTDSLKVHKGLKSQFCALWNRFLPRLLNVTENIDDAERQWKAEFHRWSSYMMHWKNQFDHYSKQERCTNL
# Acetylcholinesterase [10] = target: T1, Acetylcholinesterase; experiment: Inhibition of human erythrocyte AChE at 100 uM using ATCI and BTCI as substrate preincubated for 5 mins followed by substrate addition and measured after 3 mins by DTNB-reagent based Ellman's method relative to control; conditions: time 8.0 min
# [11] = Acute toxicity in Kunming mouse assessed as abnormalities in brain at 2500 mg/kg, po measured on day 14 by H and E staining based histopathological analysis; format: organism-based; conditions: in vivo, 336 h, time 14 day
# PC-12 [12] = experiment: Activation of Nrf2-ARE pathway in rat PC-12 cells assessed as increase in Nrf2 expression level in nucleus at 1 uM by Western blot analysis; format: cell-based; conditions: filed as activator, time >= 8.0 hrs, TDE = time-dependent effect
# PC-12 [13] = experiment: Activation of Nrf2-ARE pathway in rat PC-12 cells assessed as increase in Nrf2 expression level incubated for 4 to 8 hrs by Western blot analysis; format: cell-based; conditions: filed as activator, dose >= 2.0 µM, time 4-8 hrs
# [14] = Acute toxicity in Kunming mouse at >= 2500 mg/kg, IG measured for 14 days; format: organism-based; conditions: in vivo, po, 336 h, time 14 day
# [15] = Acute toxicity in Kunming mouse assessed as effect on body weight at 625 to 2500 mg/kg, po measured at 4 to 14 days; format: organism-based; conditions: in vivo, dose lower 625 mg/kg, time lower 4 day, dose upper 2500 mg/kg, time upper 14 day
# Cholinesterase [16] = target: T2, Cholinesterase; experiment: Mixed type inhibition of human BuChE assessed as inhibition constant using butyrylthiocholine iodide as substrate by lineweaver-burk plot analysis
# Mus musculus [17] = experiment: Antialzheimer activity in scopolamine-induced cognitive impairment Kunming mouse model assessed as number of errors in step down test at 80 mg/kg, po administered for 1 hr followed by scopolamine induction for 0.5 hr and measured after 5 min; format: functional; conditions: time 95 min, 1.583 h
# Mus musculus [18] = experiment: Antialzheimer activity in scopolamine-induced cognitive impairment Kunming mouse model assessed as step down latency time at 20 mg/kg, po administered for 1 hr followed by scopolamine induction for 0.5 hr and measured after 5 min (Rvb=36.25 sec); format: functional; conditions: time 95 min, 1.583 h
# [19] = Acute toxicity in Kunming mouse assessed as abnormalities in lung at 2500 mg/kg, po measured on day 14 by H and E staining based histopathological analysis; format: organism-based; conditions: in vivo, 336 h, time 14 day
# PC-12 [20] = experiment: Activation of Nrf2-ARE pathway in rat PC-12 cells assessed as upregulation of NQO1 expression level incubated for 8 hrs by Western blot analysis; format: cell-based; conditions: filed as activator, dose >= 2.0 µM
# Mus musculus [21] = experiment: Antialzheimer activity in scopolamine-induced cognitive impairment Kunming mouse model assessed as step down latency time at 80 mg/kg, po administered for 1 hr followed by scopolamine induction for 0.5 hr and measured after 5 min; format: functional; conditions: time 95 min, 1.583 h
# [22] = Cytotoxicity against mouse BV-2 cells assessed as cell viability at 10 uM measured after 24 hrs by CCK-8 assay; format: toxicity, cell-based; conditions: read-out: Activity
# [23] = Acute toxicity in Kunming mouse assessed as abnormalities in kidney at 2500 mg/kg, po measured on day 14 by H and E staining based histopathological analysis; format: organism-based; conditions: in vivo, 336 h, time 14 day
# Mus musculus [24] = experiment: Antialzheimer activity in scopolamine-induced cognitive impairment Kunming mouse model assessed as number of errors in step down test at 20 mg/kg, po administered for 1 hr followed by scopolamine induction for 0.5 hr and measured after 5 min (Rvb=2.2); format: functional; conditions: time 95 min, 1.583 h
# [25] = Acute toxicity in Kunming mouse assessed as abnormalities in liver at 2500 mg/kg, po measured on day 14 by H and E staining based histopathological analysis; format: organism-based; conditions: in vivo, 336 h, time 14 day
# PC-12 [26] = experiment: Cytotoxicity against rat PC12 cells assessed as cell viability at 0.625 to 10 uM measured after 24 hrs by CCK-8 assay; format: toxicity, cell-based; conditions: pc-12, 24 h, dose 0.625-10 µM
# PC-12 [27] = experiment: Activation of Nrf2-ARE pathway in rat PC-12 cells assessed as upregulation of GPX4 expression level incubated for 8 hrs by Western blot analysis; format: cell-based; conditions: filed as activator, dose >= 2.0 µM
Structure (SMILES),IC50 (Acetylcholinesterase [1]),IC50 (Cholinesterase [2]),Activity [3],Ratio IC50 [4],IC50 (Acetylcholinesterase [5]),IC50 (Cholinesterase [6]),Papp at 18 h (in vitro),also measured
COc1ccc2c(c1)c(C=O)cn2CCCCCN(C)Cc1cccc(O)c1,7.13 µM,45.4 µM,0.2 equiv,–,–,–,–,–
COc1ccc2c(c1)c(C=O)cn2CCCCCCCCCN(C)Cc1ccc(O)cc1,25.8 µM,0.53 µM,< 0.01 equiv,16,6.23 µM,0.39 µM,5.85 ×10⁻⁶ cm/s,–
COc1ccc2c(c1)c(C=O)cn2CCCCCCCCCCCCN(C)Cc1ccc(O)cc1,33.8 µM,1.04 µM,< 0.01 equiv,–,60.6 µM,0.26 µM,10 ×10⁻⁶ cm/s,Selectivity Index [7]: > 100
COc1ccc2c(c1)c(C=O)cn2CCCN(C)Cc1cccc(O)c1,–,72.3 µM,0.37 equiv,–,–,–,–,Selectivity Index [8]: > 1; inhibition [9]: 48.1%
COc1ccc2c(c1)c(C=O)cn2CCCCCCCCN(C)Cc1cccc(O)c1,3.39 µM,5.26 µM,0.22 equiv,1.21,2.6 µM,2.15 µM,6.05 ×10⁻⁶ cm/s,–
COc1cccc(CN(C)CCCCCCCCCCCCn2cc(C=O)c3cc(OC)ccc32)c1,69.1 µM,0.43 µM,< 0.01 equiv,–,–,5.49 µM,1.82 ×10⁻⁶ cm/s,Selectivity Index [7]: > 200; inhibition (Acetylcholinesterase [10]): 46.1%
CN(CCCCCCCCCCCCn1cc(C=O)c2cc(O)ccc21)Cc1cccc(O)c1,69.5 µM,2.14 µM,5.13 equiv,148,177 µM,1.2 µM,9.98 ×10⁻⁶ cm/s,"Activity [11]: Non-Toxic; Activity (PC-12 [12]): Tde; Activity (PC-12 [13]): Dose-Dependent Effect; Activity [14]: Non-Toxic; Activity [15]: Non-Toxic; Ki (Cholinesterase [16]): 1.77 µM; Activity (Mus musculus [17]): 0.6; Time (Mus musculus [18]): 17.6 s; Activity [19]: Non-Toxic; Activity (PC-12 [20]): Dose-Dependent Effect; Time (Mus musculus [21]): 233 s; viability at 24 h, 10 µM [22]: > 50%; Activity [23]: Non-Toxic; Activity (Mus musculus [24]): 2.5; Activity [25]: Non-Toxic; Activity (PC-12 [26]): Non-Toxic; Activity (PC-12 [27]): Dose-Dependent Effect"
CN(C)CCCN1c2ccccc2Sc2ccc(Cl)cc21 [CHLORPROMAZINE],–,–,–,–,–,–,5.93 ×10⁻⁶ cm/s,–
COc1ccc2c(c1)c(C=O)cn2CCCCCCCCCCCCN(C)Cc1ccc(OC)c(OC)c1,51.8 µM,0.88 µM,< 0.01 equiv,–,–,–,5.27 ×10⁻⁶ cm/s,–
O=c1c(O)c(-c2ccc(O)c(O)c2)oc2cc(O)cc(O)c12,–,–,6.14 equiv,–,–,–,–,–
COc1ccc2c(c1)c(C=O)cn2CCCCCCCCN(C)Cc1ccc(O)cc1,1.77 µM,0.45 µM,0.28 equiv,4.2,2.06 µM,0.49 µM,4.62 ×10⁻⁶ cm/s,–
COc1ccc2c(c1)c(C=O)cn2CCCCCCN(C)Cc1cccc(O)c1,0.81 µM,16.2 µM,0.82 equiv,–,–,–,–,–
COc1ccc2c(c1)c(C=O)cn2CCCCN(C)Cc1ccc(O)cc1,65.2 µM,20.1 µM,0.91 equiv,–,–,–,–,–
COc1ccc2c(c1)c(C=O)cn2CCCCCCCCCCCCCCN(C)Cc1cccc(O)c1,31.6 µM,8.76 µM,< 0.01 equiv,–,–,–,–,–
COc1ccc2c(c1)c(C=O)cn2CCCCCCCCCCN(C)Cc1ccc(O)cc1,1.47 µM,0.12 µM,0.05 equiv,3.16,0.6 µM,0.19 µM,5.46 ×10⁻⁶ cm/s,–
CCN(CCCCCCCCCCCCn1cc(C=O)c2cc(OC)ccc21)Cc1cccc(O)c1,10.5 µM,0.19 µM,0.13 equiv,48.3,42.5 µM,0.88 µM,8.18 ×10⁻⁶ cm/s,–
COc1ccc2c(c1)c(C=O)cn2CCCCCN(C)Cc1ccc(O)cc1,26.9 µM,6.19 µM,0.78 equiv,–,–,–,–,–
COc1ccc2c(c1)c(C=O)cn2CCCN(C)Cc1ccc(O)cc1,67.6 µM,6.53 µM,1.12 equiv,–,–,–,5.69 ×10⁻⁶ cm/s,–
COc1ccc2c(c1)c(C=O)cn2CCCCCCN(C)Cc1ccc(O)cc1,0.54 µM,7.2 µM,0.61 equiv,–,–,–,–,–
COc1ccc2c(c1)c(C=O)cn2CCCCCCCCCN(C)Cc1cccc(O)c1,3.36 µM,1.63 µM,< 0.01 equiv,2.2,5.19 µM,2.36 µM,–,–
COc1ccc2c(c1)c(C=O)cn2CCCCCCCN(C)Cc1cccc(O)c1,1.39 µM,5.47 µM,< 0.01 equiv,1.13,5.54 µM,4.89 µM,4.78 ×10⁻⁶ cm/s,–
COc1ccc2c(c1)c(C=O)cn2CCCCCCCCCCN(C)Cc1cccc(O)c1,3.1 µM,0.61 µM,< 0.01 equiv,23.8,4.52 µM,0.19 µM,5.76 ×10⁻⁶ cm/s,–
COc1ccc2c(c1)c(C=O)cn2CCCCCCCCCCCCN(C)Cc1cccc(O)c1,27.6 µM,0.31 µM,< 0.01 equiv,510,76.5 µM,0.15 µM,4.71 ×10⁻⁶ cm/s,–
COc1ccc2c(c1)c(C=O)cn2CCCCCCCN(C)Cc1ccc(O)cc1,1.43 µM,2.1 µM,1.55 equiv,1.81,1.61 µM,0.89 µM,4.19 ×10⁻⁶ cm/s,–
COc1ccc2c(c1)c(C=O)cn2CCCCN(C)Cc1cccc(O)c1,–,42 µM,< 0.01 equiv,–,–,–,–,Selectivity Index [8]: > 2; inhibition [9]: 48.2%
COc1ccc(CN(C)CCCCCCCCCCCCn2cc(C=O)c3cc(OC)ccc32)cc1,79.9 µM,5.49 µM,< 0.01 equiv,233,–,0.43 µM,4.09 ×10⁻⁶ cm/s,inhibition (Acetylcholinesterase [10]): 46.1%
C[C@]12CC[C@@H]3c4ccc(O)cc4CC[C@H]3[C@@H]1CC[C@@H]2O [ESTRADIOL],–,–,–,–,–,–,14.1 ×10⁻⁶ cm/s,–
